Tests used:
K562 cells = assay: NK cell cytotoxicity assay, K562 target cells; type: cell-based; conditions: 4 hours
Protocol: (§1) NK Cell Cytotoxicity Assay: Cytotoxicity was determined using a flow cytometry based method based on a previously published method (Kim, et al. J Immunol Methods. 2007 Aug. 31; 325(1-2): 51-66). NK cells were co-cultured with e450-proliferation dye-labelled targets for 4 hours. CellEvent™ Caspase-3/7 Green Flow Cytometry Assay Kit (Lifer Technologies) was used to assay for cell death among target cells, and samples were read on a BD LSRFortessa cytometer. Killing of SKOV-3 targets was quantified using the Incucyte Zoom instrument. SKOV-3 cells were transiently transduced with NucLight-Red BacMam reagent (Essen Biosciences) and co-cultured with the indicated NK cell populations for 74 hours, with images taken on two hour intervals. Caspase 3/7 activity was monitored to indicate target cells undergoing apoptosis using the CellEvent™ Caspase-3/7 Green Detection Reagent. The number of target cells was normalized to SKOV-3 cells cultured alone, and targets undergoing apoptosis were quantified based on caspase 3/7 activity.
The ability of GSK3 inhibition to enhance cytotoxicity of NK cells isolated directly from donors was assessed using in vitro killing assays. […] depleted PBMC population was treated overnight with 10 ng/mL IL-15 only (primed), or a 7 day culture combination of 10 ng/mL IL-15 and 5 μM CHIR99021. The target cells for the killing assays included K562 cells, CD20+ Raji cells, HER2+ SKOV3 cells and HER2+A549 cells. The E:T (Effector:Target) ratio applied to each assay ranged from 0.1, 0.5, 1, 5 to 10. After the target cells were incubated with the differently treated NK cells for 4 hours, the respective percentage of specific killing (target cell lysis) was calculated. […] Raji cells are less prone to NK mediated cytotoxicity.
(§2) The ability of STING agonist to enhance cytotoxicity of GSK3i multiday modulated NK cells was assessed using in vitro killing assays. […]

Nalm6 cells = assay: NK cell cytotoxicity assay, Nalm6 target cells; type: cell-based, human; conditions: 1 μM STING agonist added to 7 day 10 ng/mL IL-15 + 5 μM CHIR99021 culture; 4 hours
Protocol: as §1, §2

KG-1 cells = assay: NK cell cytotoxicity assay, KG-1 target cells; type: cell-based, human; conditions: 1 μM STING agonist added to 7 day 10 ng/mL IL-15 + 5 μM CHIR99021 culture; 4 hours
Protocol: as §1, §2

NK cells = assay: 7 day NK culture with IL15, GSK3i and/or STING agonist: phenotype by flow cytometry; type: cell-based, human
Protocol: CD3/CD19 depleted PBMC were cultured for 7 days in the presence of 10 ng/ml IL15 and (1) DMSO (vehicle); (2) […] GSK3i (CHIR99021); (3) 1 μM STING agonist (ML RR-S2 CDA); or (4) […] GSK3i+1 μM STING agonist. On day 7, NK cell function and phenotype was assessed by intracellular cytokine staining, cytotoxicity assays, and flow cytometry. […] The frequency of CD107a+ NK cells after incubation with K562 cells was increased for cells cultured for 7 days with IL-15+GSK3i+STING agonist compared to cells cultured with IL-15+GSK3i only (FIG. 16C). Increased cell surface CD107a expression is associated with enhanced degranulation and cytotoxic potential of NK cells in the presence of STING agonist in combination with GSK3i.
Natural Killer (NK) cells recognize and destroy tumors and virus-infected cells in an antibody-independent manner. The regulation of NK cells is mediated by activating and inhibiting receptors on the NK cell surface. One important family of activating receptors is the natural cytotoxicity receptors (NCRs) which include NKp30, NKp44 and NKp46. The NCRs initiate tumor targeting by recognition of their specific ligands on cancer cells.

T cells = assay: In vitro T cell culture compound screen, flow cytometry for CCR7+CD62L+ cells; type: cell-based, human; conditions: for CD8 Hit / CD4 Hit: 10 μM, about 6 days, anti-CD3/anti-CD28 beads, viability and cell number Z-score > −1; for CD8 Hit: hit: Z-score > +2 for percent or relative number CCR7+CD62L+ in viable CD8+; for CD4 Hit: hit: Z-score > +2 for percent or relative number CCR7+CD62L+ in viable CD4+
Excerpt: In Vitro T Cell Culture. Fresh leukopaks (AllCells, Alameda, CA) were obtained from healthy donors, from which T cells were negatively selected using the EasySep Human T cell Enrichment Kit (Stem Cell Technologies, Vancouver, Canada). The freshly isolated T cells were aliquoted and cryopreserved. On the day the screens were initiated, T cells were thawed and washed into X-Vivo 15 with 5% human AB serum, IL-2, pen/strep, and additional supplements. Cells were dispensed into flat-bottom 384-well plates at 5×10^5 cells/ml with anti-CD3/Anti-CD28 dynabeads (ThermoFisher, Waltham, MA) at a 3:1 bead-to-cell ratio. Individual compounds were added at a final concentration of 10 μM to each well from column 3 to column 22 of each plate. Positive and negative controls were added to additional wells. Cells were incubated for about 6 days at 37 degrees with 5% CO2.
Flow Cytometry. On Day 6 of culture, cells were stained with a fixable viability marker and fluorophore-conjugated antibodies: CD3, CD4, CD8, CD45RA, CD45RO, CD62L, CCR7, CD27, and CD122 (BD Biosciences, San Jose, CA; and BioLegend, San Diego, CA). Fluorescent absolute counting beads (Spherotech, Lake Forest, IL) were added just prior to acquisition. Data acquisition was performed on a BD Fortessa X-20 (BD Biosciences) and data were analyzed using Treestar software (FlowJo, Ashland, OR) and Spotfire (Tibco, Boston, MA).
These cells are characterized by expression of CCR7 and CD62L. Therefore, cells co-expressing both of these identifying markers were evaluated. Within the viable CD4+ population and viable CD8+ population, the percent of cells co-expressing CCR7 and CD62L was determined. The expression of either CD62L or CCR7 on T cells, as indicative of the desired T cell subsets, have been described as having favorable functional characteristics for CAR-T cell therapy, and potentially other adoptive T cell therapies.
The number of events in each of these gates relative to the number of absolute counting beads in each sample was calculated, defining a relative measure of the absolute number of naïve, stem cell memory, or central memory T cells within the CD4+ and/or CD8+ populations. A z-Score relative to the screened compound samples within each 384-well plate was calculated for each of these four values: 1) percent CCR7+CD62L+ in CD4+, 2) percent CCR7+CD62L+ in CD8+, 3) absolute relative number of CCR7+CD62L+ in CD4+, and 4) absolute relative number of CCR7+CD62L+ in CD8+(FIGS. 1A and 1B). Z-scores were also calculated for the percent viability of all cells within each sample and the relative absolute number of cells within each sample. A “Z-Score” is a statistical measurement of a score's relationship to the mean in a group of scores. AZ-score of 0 means the score is the same as the mean. AZ-score can also be positive or negative, indicating whether it is above or below the mean and by how many standard deviations.

CD20+ Raji cells = assay: NK cell cytotoxicity assay, Raji target cells; type: cell-based, human; conditions: 4 hours; NK cells overnight IL-15 only or 7 days IL15 + GSK3i
Protocol: as §1
The ability of GSK3 inhibition to enhance cytotoxicity of NK cells isolated directly from donors was assessed using in vitro killing assays. […] After the target cells were incubated with the differently treated NK cells for 4 hours, the respective percentage of specific killing (target cell lysis) was calculated. […]

[1] = at least in viable CD8+ population
[2] = in both viable CD4+ population and viable CD8+ population

Compound | CD8 Hit (T cells) | number or ratio of cells co-expressing CCR7 and CD62L (T cells; [1]) | CD4 Hit (T cells) | also measured
Nc1ncnc2c1ncn2[C@@H]1O[C@@H]2COP(O)(=S)O[C@@H]3C(O)[C@@H](COP(O)(=S)O[C@H]2[C@H]1O)O[C@H]3n1cnc2c(N)ncnc21 (stereo partly shown) [ML RR-S2 CDA] | – | – | – | cytotoxicity (specific killing) against K562 cells (K562 cells; 1 μM STING agonist added to 7 day 10 ng/mL IL-15 + 5 μM CHIR99021 culture): enhanced; cytotoxicity (specific killing) against Nalm6 cells (Nalm6 cells): enhanced; cytotoxicity (specific killing) against KG-1 cells (KG-1 cells): enhanced; effect on adaptive NK phenotype and total NK number (NK cells; 7 days, 10 ng/ml IL15, 1 μM STING agonist): limited effect; total CD57+NK number (NK cells; FIG. 15A): limited effect; CD57+NKG2C+NK phenotype (NK cells; FIG. 15B): limited effect
C[C@]12CC[C@@H]3c4ccc(O)cc4C[C@@H](CCCCCCCCC[S+]([O-])CCCC(F)(F)C(F)(F)F)[C@H]3[C@@H]1CC[C@@H]2O (stereo partly shown) [Fulvestrant] | CD8 | increased | – | –
CC[n+]1c(/C=C/C=C2/N(C)c3ccccc3C2(C)C)sc2ccccc21.[I-] [AC-93253 iodide] | CD8 | – | CD4 | number or ratio of cells co-expressing CCR7 and CD62L (T cells; [2]): increased
CCCc1nc2c(C)cc(-c3nc4ccccc4n3C)cc2n1Cc1ccc(-c2ccccc2C(=O)O)cc1 [Telmisartan] | – | increased | CD4 | –
IL15: recombinant human IL-15, cytokine used alone as comparator culture (10 ng/mL) | – | – | – | E:T50 (E:T ratio when there is 50% of target cell lysis), K562 killing assay (K562 cells; NK cells overnight 10 ng/mL IL-15 only or 7 day IL-15 + 5 μM CHIR99021): about 10; E:T50, Raji cells (CD20+ Raji cells): ~100
CN(C)c1ccc(C=C2C(=O)Nc3ccccc32)cc1 [SU 4312] | CD8 | increased | – | –
CCC(CO)Nc1nc(NCc2ccccc2)c2ncn(C(C)C)c2n1 (stereo in doubt) [Roscovitine, (S)-Isomer] | – | increased | CD4 | –
N#CC(=C(/N)Sc1ccccc1N)/C(C#N)=C(\N)Sc1ccccc1N [U0126] | – | increased | CD4 | –
CN[C@H]1CC[C@@H](c2ccc(Cl)c(Cl)c2)c2ccccc21 [Sertraline] | CD8 | – | CD4 | –
N.S=C(S)N1CCCC1 [1-Pyrrolidinecarbodithioic acid, ammonium salt] | – | increased | CD4 | –
Oc1c(I)cc(Cl)c2cccnc12 [8-Quinolinol, 5-chloro-7-iodo-] | CD8 | – | CD4 | number or ratio of cells co-expressing CCR7 and CD62L (T cells; [2]): increased

Reference: patent US12281329B2, “Compositions and methods for immune cell modulation in adoptive immunotherapies” (Fate Therapeutics, Inc., priority 2016, dated 2025)
